# Data taken from patent publication US8329736B2, “Triazole compounds that modulate HSP90 activity” (Synta Pharmaceuticals, Corp., priority 2006, dated 2012).
# Test system: Her2
# Assay: Degradation of Her2 in BT-474 cells, Western blot (Method 1)
# Assay type: cell-based, human
# Conditions: 0.5 μM, overnight
# Experimental: Human high-Her2 breast carcinoma BT474 (HTB-20), SK-BR-3 (HTB-30) and MCF-7 breast carcinoma (HTB-22) from American Type Culture Collection, VA, USA were grown in Dulbecco's modified Eagle's medium with 4 mM L-glutamine and antibiotics (100 IU/ml penicillin and 100 ug/ml streptomycine; GibcoBRL). To obtain exponential cell growth, cells were trypsinized, counted and seeded at a cell density of 0.5×10^6 cells/ml regularly, every 3 days. All experiments were performed on day 1 after cell passage.
# BT-474 cells are treated with 0.5 μM, 2 μM, or 5 μM of 17AAG (a positive control) or 0.5 μM, 2 μM, or 5 μM of a compound of the invention overnight in DMEM medium. After treatment, each cytoplasmic sample is prepared from 1×10^6 cells by incubation of cell lysis buffer (#9803, cell Signaling Technology) on ice for 10 minutes. The resulting supernatant used as the cytosol fractions is dissolved with sample buffer for SDS-PAGE and run on a SDS-PAGE gel, blotted onto a nitrocellulose membrane by using semi-dry transfer. Non-specific binding to nitrocellulose is blocked with 5% skim milk in TBS with 0.5% Tween at room temperature for 1 hour, then probed with anti-Her2/ErB2 mAb (rabbit IgG, #2242, Cell Signaling) and anti-Tubulin (T9026, Sigma) as housekeeping control protein. […]
smiles,measurement,value
"C=CCNC1=C2C[C@@H](C)C[C@H](OC)[C@H](O)[C@@H](C)/C=C(\C)[C@H](OC(N)=O)[C@@H](OC)/C=C\C=C(/C)C(=O)NC(=CC1=O)C2=O [Compound 17AAG, 17-allylamino-17-demethoxygeldanamycin]",degradation of Her2,partial degradation of Her2
